From patent US4689345A, “Oxygenated alkyl substituted bicyclo alkanes” (CBD Corporation, priority 1986, dated 1987)
“Also recorded” adds a separate entry of the source. Read-outs that look alike come from different tables or passages of the source.

Legend:
[1] = test system: androgen receptor; assay: Androgen receptor inhibition, Candida; format: binding
[2] = test system: androgen receptor; assay: Androgen receptor inhibition, Sporotrichum; format: binding
[3] = test system: estrogen receptor; assay: Estrogen receptor inhibition, Pseudomonas testosteroni; format: binding
[4] = test system: androgen receptor; assay: Androgen receptor inhibition, Actinomyces; format: binding
[5] = test system: estrogen receptor; assay: Estrogen receptor inhibition, Saccharomyces cerevisiae strains; settings: DHT:anti-androgen 1:1,000
[6] = test system: progesterone receptor; assay: Progesterone receptor inhibition, Actinomyces; format: binding
[7] = test system: androgen receptor; assay: Androgen receptor inhibition, Trichophyton; format: binding
[8] = test system: estrogen receptor; assay: Estrogen receptor inhibition, Trichophyton; format: binding
[9] = test system: androgen receptor; assay: Androgen receptor inhibition, Fusarium calorum; format: binding
Excerpt: (§1) In the second series of experiments using the compound of the invention 2-(5-hydroxyhept-1-yl) bicyclo[3.3.0]octan-7-one {hexahydro-4-(5-hydroxyheptyl)-2-(1H)-pentalenone} upon zeralenone and zearalanol production, zearalenone and zearalanol were chemically obtained from Sigma Chemical Co., St. Louis, Mo.

[10] = test system: progesterone receptor; assay: Progesterone receptor inhibition, Coccodia; format: binding
[11] = test system: estrogen receptor; assay: Estrogen receptor inhibition, Candida; format: binding
[12] = test system: progesterone receptor; assay: Fungal progesterone receptor inhibition, Fusarium; format: binding
[13] = test system: progesterone receptor; assay: Progesterone receptor inhibition, Norcardia; format: binding
[14] = test system: progesterone receptor; assay: Progesterone receptor inhibition, Trichophyton; format: binding
[15] = test system: estrogen receptor; assay: Estrogen receptor inhibition, Norcardia; format: binding
[16] = test system: androgen receptor; assay: Androgen receptor inhibition, Saccharomyces cerevisiae strains; settings: DHT:anti-androgen 1:1,000
[17] = test system: fungal infections; assay: Efficacy studies and toxicity studies
Excerpt: At the present time, therapies for fungal infections are not satisfactory and are frequently dangerous.

[18] = test system: progesterone receptor; assay: Progesterone receptor inhibition, Cryptococci; format: binding
[19] = test system: progesterone receptor; assay: Progesterone receptor inhibition, Sporotrichum; format: binding
[20] = test system: progesterone receptor; assay: Progesterone receptor inhibition, Fusarium calorum; format: binding
Excerpt: as §1

[21] = test system: estrogen receptor; assay: Estrogen receptor inhibition, Fulsarium gravarium; format: binding
Excerpt: as §1

[22] = test system: androgen receptor; format: binding; settings: Histoplasma
[23] = test system: progesterone receptor; format: binding; settings: Histoplasma
[24] = test system: androgen receptor; assay: Androgen receptor inhibition, Cryptococci; format: binding
[25] = test system: androgen receptor; assay: Androgen receptor inhibition, Norcardia; format: binding
[26] = test system: progesterone receptors; assay: Effect on progesterone receptors in breast capsule tissue; format: binding, human; settings: breast capsule / hard band tissue
Procedure: "Hard fibrous band" formation was retarded around breast implants following augmentation surgery.
The tissues were evaluated, with appropriate controls, for effects by the novel anti-androgen.

[27] = test system: androgen binding sites in a melanoma; assay: Blocking of androgen binding sites in a melanoma; settings: 1:1000 of dihydrotestosterone to the tested compound
[28] = test system: collagen:elastin formation; assay: Collagen synthesized and elastic increase compared to control, by patient; format: cell-based, human; settings: anti-androgen to DHT 1,000:1
[29] = biological target: T1, androgen receptor sites (Homo sapiens, UniProt P10275); assay: Retarding collagen formation through blockage of androgen receptor sites; settings: Example 53
T1 construct: other tests of the document use human skin, keloid and fibroblasts with 3H-DHT
T1 sequence (P10275 whole entry): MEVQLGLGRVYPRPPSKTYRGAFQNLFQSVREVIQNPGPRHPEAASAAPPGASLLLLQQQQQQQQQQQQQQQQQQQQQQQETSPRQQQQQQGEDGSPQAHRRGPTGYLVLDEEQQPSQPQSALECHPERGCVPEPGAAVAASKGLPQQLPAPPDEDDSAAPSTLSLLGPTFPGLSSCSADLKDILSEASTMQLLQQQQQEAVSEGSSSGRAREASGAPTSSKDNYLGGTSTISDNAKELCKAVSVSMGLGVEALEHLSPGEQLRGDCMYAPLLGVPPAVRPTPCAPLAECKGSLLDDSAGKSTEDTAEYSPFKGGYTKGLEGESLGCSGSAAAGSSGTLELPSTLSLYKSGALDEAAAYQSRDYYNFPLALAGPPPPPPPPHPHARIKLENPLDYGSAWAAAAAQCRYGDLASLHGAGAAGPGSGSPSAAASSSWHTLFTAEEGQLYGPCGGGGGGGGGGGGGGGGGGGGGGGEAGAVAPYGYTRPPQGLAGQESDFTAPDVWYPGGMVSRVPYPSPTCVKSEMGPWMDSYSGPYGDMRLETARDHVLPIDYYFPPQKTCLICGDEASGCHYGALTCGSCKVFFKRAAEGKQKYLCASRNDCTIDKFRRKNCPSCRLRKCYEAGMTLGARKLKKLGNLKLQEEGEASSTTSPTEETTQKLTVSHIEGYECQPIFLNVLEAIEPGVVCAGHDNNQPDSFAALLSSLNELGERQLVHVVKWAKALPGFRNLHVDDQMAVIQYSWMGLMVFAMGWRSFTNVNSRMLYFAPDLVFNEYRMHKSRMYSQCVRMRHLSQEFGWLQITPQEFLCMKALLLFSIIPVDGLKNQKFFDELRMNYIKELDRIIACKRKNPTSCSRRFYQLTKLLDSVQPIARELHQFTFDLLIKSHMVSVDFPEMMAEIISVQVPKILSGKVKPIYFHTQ
Procedure: Accordingly, to treat arteriosclerosis, an oral dosage unit formulation is produced which contains 2 mg of 2-(5-methoxyhept-1-yl)bicyclo [3.3.0]octan-7-one {hexahydro-4-(5-methoxyheptyl)-2(1H)-pentalenone}, which is delivered to a subject once every six hours.

[30] = test system: estrogen receptor; assay: Estrogen receptor inhibition in skin/tissue fibroblast lines; format: cell-based, human; settings: DHT:compound 1:1,000; for interference with / inhibition of estrogen receptors: more than 400 experiments
Procedure: Explants of both normal and keloid skin and tissue fibroblast lines were established.
Hormonal receptor analyses on these tissues were performed by the method of Griffith et al., Journal of Clinical Investigation, Vol. 57, page 1340 (1978).

[31] = listed as 2-(5-methoxyhept-1-yl)bicyclo[3.3.0]octan-7-one

CCC(O)CCCCC1CCC2CC(=O)CC12 (stereo not shown) [Compound IV]
% Androgen Receptor Inhibition [1]: 92% | % Androgen Receptor Inhibition [2]: 29% | % Estrogen Receptor Inhibition ([3]; strain 1): 0% | % Estrogen Receptor Inhibition ([3]; strain 2): 0% | % Estrogen Receptor Inhibition ([3]; strain 3): 0% | % Estrogen Receptor Inhibition ([3]; strain 4): 0% | % Androgen Receptor Inhibition [4]: 90% | % Estrogen Receptor Inhibition ([5]; strain 1): 0% | % Estrogen Receptor Inhibition ([5]; strain 2): 0% | % Estrogen Receptor Inhibition ([5]; strain 3): 0% | % Estrogen Receptor Inhibition ([5]; strain 4): 0% | % Estrogen Receptor Inhibition ([5]; strain 5): 0% | % Estrogen Receptor Inhibition ([5]; strain 6): 0% | % Estrogen Receptor Inhibition ([5]; strain 7): 0% | % Progesterone Receptor Inhibition [6]: 0% | % Androgen Receptor Inhibition [7]: 81% | % Estrogen Receptor Inhibition [8]: 0% | % Androgen Receptor Inhibition ([9]; DHT:anti-androgen 1:1): 29% | % Androgen Receptor Inhibition ([9]; DHT:anti-androgen 1:10): 37% | % Androgen Receptor Inhibition ([9]; DHT:anti-androgen 1:100): 79% | % Androgen Receptor Inhibition ([9]; DHT:anti-androgen 1:1,000): 90% | % Progesterone Receptor Inhibition [10]: 4% | % Estrogen Receptor Inhibition [11]: 0% | % Progesterone Receptor Inhibition ([12]; fungal hormone Zeralanol): 0% | % Progesterone Receptor Inhibition ([12]; fungal hormone Zeralenone): 0% | % Progesterone Receptor Inhibition [13]: 0% | % Progesterone Receptor Inhibition [14]: 7% | % Estrogen Receptor Inhibition [15]: 0% | % Androgen Receptor Inhibition ([16]; strain 1): 16% | % Androgen Receptor Inhibition ([16]; strain 2): 37% | % Androgen Receptor Inhibition ([16]; strain 3): 92% | % Androgen Receptor Inhibition ([16]; strain 4): 76% | % Androgen Receptor Inhibition ([16]; strain 5): 39% | % Androgen Receptor Inhibition ([16]; strain 6): 59% | % Androgen Receptor Inhibition ([16]; strain 7): 87% | efficacy studies [17]: efficacious | toxicity studies [17]: safe | % Progesterone Receptor Inhibition [18]: 4% | % Progesterone Receptor Inhibition [19]: 7% | % Progesterone Receptor Inhibition ([20]; DHT:anti-androgen 1:1): 7% | % Progesterone Receptor Inhibition ([20]; DHT:anti-androgen 1:10): 9% | % Estrogen Receptor Inhibition ([21]; DHT:anti-androgen 1:1): 0% | % Estrogen Receptor Inhibition ([21]; DHT:anti-androgen 1:10): 0% | % Estrogen Receptor Inhibition ([21]; DHT:anti-androgen 1:100): 0% | % Estrogen Receptor Inhibition ([21]; DHT:anti-androgen 1:1,000): 0% | % Androgen Receptor Inhibition [22]: 47% | % Progesterone Receptor Inhibition [23]: 0% | % Androgen Receptor Inhibition [24]: 76% | % Androgen Receptor Inhibition [25]: 50%

CCC(CCCCC1CCC2CC(=O)CC12)OC (stereo not shown) [Compound V, 2-(5-Methoxyhept-1-yl)bicyclo[3.3.0]octan-7-one]
effect on progesterone receptors [26]: without any significant effects | effect on progesterone receptors [26, 31]: no significant effects | block of androgen binding sites in a melanoma [27]: 59-80% | Fold Elastic Increase Compared to Control ([28]; patient 1): 1.4 Fold | Fold Elastic Increase Compared to Control ([28]; patient 2): 4.7 Fold | Fold Elastic Increase Compared to Control ([28]; patient 3): 2.0 Fold | Fold Elastic Increase Compared to Control ([28]; patient 4): 4.0 Fold | Fold Elastic Increase Compared to Control ([28]; patient 5): 6.0 Fold | Fold Elastic Increase Compared to Control ([28]; patient 6): 2.0 Fold | Fold Elastic Increase Compared to Control ([28]; patient 7): 3.0 Fold | Fold Elastic Increase Compared to Control ([28]; patient 8): 3.0 Fold | Fold Elastic Increase Compared to Control ([28]; patient 9): 4.0 Fold | Fold Elastic Increase Compared to Control ([28]; patient 10): 6.0 Fold | Fold Elastic Increase Compared to Control ([28]; patient 11): 3.0 Fold | retarding collagen formation through blockage of androgen receptor sites [29]: excellent results in retarding collagen formation through blockage of androgen receptor sites | interference with / inhibition of estrogen receptors [30]: without significant interference | interference with / inhibition of estrogen receptors [30, 31]: None of the tests showed any measurable estrogen receptor inhibition; also recorded: without significant interference | % Estrogen Receptor Inhibition ([30]; forearm): 0% | % Estrogen Receptor Inhibition ([30]; keloid): 0% | % Estrogen Receptor Inhibition ([30]; keloid, listed as 2-(5-methoxyhept-1-yl)bicyclo[3.3.0]octan-7-one): no measurable | % Estrogen Receptor Inhibition ([30]; scalp): 0%
